{"source": "patent US9199975B2", "about": "“Biaryl imidazole derivatives for regulating CYP17” (Asana Biosciences, LLC, priority 2011, dated 2015)", "note": "pIC50: −log10 of the molar value.", "data": [{"target": "T1, human CYP17 (Homo sapiens, UniProt P05093)", "T1 sequence (P05093 1-508)": "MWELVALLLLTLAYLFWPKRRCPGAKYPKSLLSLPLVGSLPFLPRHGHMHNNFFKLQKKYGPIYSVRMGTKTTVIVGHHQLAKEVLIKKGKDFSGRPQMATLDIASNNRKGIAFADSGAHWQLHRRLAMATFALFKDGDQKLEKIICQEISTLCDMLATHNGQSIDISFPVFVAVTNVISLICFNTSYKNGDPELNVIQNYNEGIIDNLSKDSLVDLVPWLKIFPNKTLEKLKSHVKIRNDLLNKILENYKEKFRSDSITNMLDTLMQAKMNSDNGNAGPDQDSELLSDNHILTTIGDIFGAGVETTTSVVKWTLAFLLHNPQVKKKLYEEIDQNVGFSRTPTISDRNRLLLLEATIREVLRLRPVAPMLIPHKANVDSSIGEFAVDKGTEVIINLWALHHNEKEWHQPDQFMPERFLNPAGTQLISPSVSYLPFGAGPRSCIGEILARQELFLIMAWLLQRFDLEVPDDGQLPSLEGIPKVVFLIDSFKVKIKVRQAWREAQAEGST", "test": "Cell-based human CYP17 inhibition assay, LNCap-CYP17 cells", "conditions": "16 hours at 37° C.", "description": "Cell-Based Human CYP17 Inhibition Assay\nA. Materials • 1. H295R Adrenocortical Carcinoma Cells and Growth Media: The media for the H295R Adrenocortical carcinoma cells [NCI-H295A, ATCC Number CRL-2128, American Type Culture Collection, Manassas, Va., US] (500 mL) was a DMEM:F12 Mix 1:1 with 5% […] BD Nu Serum; 1% (5 mL) ITS+Premix [BD Biosciences] and 1% Penstrep. • 2. LNCap-CYP17 Cells and Growth Media: Full length hCYP17a1 gene (NCBI Reference Sequence: NM_000102.3) was cloned in pCDNA3.1(+) vector between HindIII and XhoI site. The pCDNA3.1(+) vector contains the Neomycin resistance gene and was used for selection of stable cell line. The hCYP17a1 containing pCDNA3.1(+) was transfected into LNCap cells to create the LNCap-CYP17 cell line. The media for the LNCaP-CYP17 cells was RPMI 1640, 10% FBS, 1% PenStrep, Geneticin 400 μg/mL.\nThe H295R cells or LNCaP-hCYP17 cells were subcultured and 30,000 cells per well were seeded in a poly-d lysine plate and incubated overnight at 37° C. The next day the media was removed and 200 µL of fresh media with ^3H3-17α-hydroxy-pregnenolone (1:1000) was added. 50 μL of serially diluted compounds from a 5× plate (5 times the final desired concentration) was added. The working concentration range for active, new compounds started from a high concentration of […] with 3-fold serial dilutions generating up to 10 concentrations. The serial dilution in the 100× plate (in DMSO) and the stamping of a 5× plate (in media) from the 100× plate were carried out using a TECAN liquid handling device.\nThe plates were incubated overnight (16 hours) at 37° C. After 16 hours, the media was removed (approximately 220 μL) and an equal amount of chloroform was added, mixed and incubated for 30 minutes at 4 degrees. The plate was centrifuged at 4000 rpm for 15 minutes at 4° C., following which the top aqueous layer was carefully removed and added into a new deep well plate. An equal volume of activated 5% charcoal was added, mixed and incubated for 30 minutes at 4° C. The plate was then centrifuged at 4000 rpm for 15 minutes at 4° C. and the top layer carefully separated, avoiding any charcoal contamination, and placed in a white, clear bottom plate (plate cat #3610, Corning Life Sciences). An equal volume of Microscint™ 40 was added and mixed well. Following the incubation for 30 minutes, readings for the radiotracer were taken using a Microbeta® trilux.", "values": [{"smiles": "CCC(c1ccc(-c2ccc(O)cc2)o1)n1ccnc1", "note": "(stereo not drawn) [Example 30, 4-[5-(1-Imidazol-1-yl-propyl)-furan-2-yl]-phenol]", "pIC50": "> 7.30"}, {"smiles": "CCC(c1ccc(-c2cccc(O)c2)cn1)n1ccnc1", "note": "(stereo not drawn) [Example 8, 3-(6-(1-(1H-imidazol-1-yl)propyl)pyridin-3-yl)phenol]", "pIC50": "6.70 to 7.30"}, {"smiles": "CCC(c1ccc(-c2ccc(OC)cc2)o1)n1ccnc1", "note": "(stereo not drawn) [Example 27, 1-{1-[5-(4-Methoxy-phenyl)-furan-2-y]-propyl}-1H-imidazole]", "pIC50": "6.70 to 7.30"}, {"smiles": "CCC(c1ccc(-c2ccccc2O)cn1)n1ccnc1", "note": "(stereo not drawn) [Example 37, 2-[6-(1-Imidazol-1-yl-propyl)-pyridin-3-yl]-phenol]", "pIC50": "5.00 to 6.70"}, {"smiles": "CCC(c1ccc(-c2cccc(OC)c2)cn1)n1ccnc1", "note": "(stereo not drawn) [Example 7, 2-(1-(1H-imidazol-1-yl)propyl)-5-(3-methoxyphenyl)pyridine]", "pIC50": "6.70 to 7.30"}, {"smiles": "CCOC(=O)c1ccc(-c2ccc(C(CC)n3ccnc3)nc2)cc1", "note": "(stereo not drawn) [Example 5, Ethyl 4-(6-(1-(1H-imidazol-1-yl)propyl)pyridin-3-yl)benzoate]", "pIC50": "5.00 to 6.70"}, {"smiles": "CCC(c1cnc(-c2ccc(OC)cc2)s1)n1ccnc1", "note": "(stereo not drawn) [Example 35, 5-(1-Imidazol-1-yl-propyl)-2-(4-methoxy-phenyl)-thiazole]", "pIC50": "5.00 to 6.70"}, {"smiles": "CCC(c1cnc(-c2ccc(O)cc2)s1)n1ccnc1", "note": "(stereo not drawn) [Example 60, 4-[5-(1-Imidazol-1-yl-propyl)-thiazol-2-yl]-phenol]", "pIC50": "5.00 to 6.70"}, {"smiles": "CCC(c1ccc(-c2ccccc2OC)cn1)n1ccnc1", "note": "(stereo not drawn) [Example 56, 2-(1-Imidazol-1-yl-propyl)-5-(2-methoxy-phenyl)-pyridine]", "pIC50": "5.00 to 6.70"}, {"smiles": "CC(c1ccc(-c2ccc(O)cc2)s1)n1ccnc1", "note": "(stereo not drawn) [Example 49, 4-[5-(1-Imidazol-1-yl-ethyl)-thiophen-2-yl]-phenol]", "pIC50": "6.70 to 7.30"}]}, {"tested_on": "testosterone production in H295R cells", "test": "Cell-based functional assay for testosterone production in H295R cells", "conditions": "Homo sapiens, NCI-H295R, 72 hours, testosterone ELISA, read-out: Testosterone (human H295R adrenal cells)", "description": "Cell-based Functional Assay for Testosterone Production\nH295R cells (ATCC Number CRL-2128) were subcultured, seeded (30,000 cells per well in a poly-d lysine plate) and left overnight at 37° C. The next day (after approximately 24 hours), the media were removed and 200 μL fresh media were added. Then, 50 μL of serially diluted compounds was added from a 5× plate. The serial dilution in the 100× plate (in DMSO) and the stamping of a 5× plate (in media) from the 100× plate were carried out using a TECAN liquid handling device. The plate was incubated at 37° C. for 72 hours. After incubation, the media was removed, diluted 5 to 10 times with calibration diluent RD5-48, and the assay performed as per manufacturer's protocol (Parameter Testosterone Assay, Cat. No. KGE010, R&D systems; http://www.rndsystems.com/pdf/KGE010.pdf).", "values": [{"smiles": "CC(c1cnc(-c2ccc(F)cc2F)s1)n1ccnc1", "note": "(stereo not drawn) [Example 28, 2-(2,4-Difluoro-phenyl)-5-(1-imidazol-1-yl-ethyl)-thiazole]", "pIC50": "6.70 to 7.30"}, {"smiles": "CC(c1ccc(-c2ccc(=O)n(C(C)C)c2)s1)n1ccnc1", "note": "(stereo not drawn) [Example 21, 5-(5-(1-(1H-imidazol-1-yl)ethyl)thiophen-2-yl)-1-isopropylpyridin-2(1H)-one]", "pIC50": "5.00 to 6.70"}, {"smiles": "CC(c1ccc(-c2ccc(=O)n(C)c2)s1)n1ccnc1", "note": "(stereo not drawn) [Example 20, 5-(5-(1-(1H-imidazol-1-yl)ethyl)thiophen-2-yl)-1-methylpyridin-2(1H)-one]", "pIC50": "> 7.30"}, {"smiles": "CC(c1ccc(-c2ccc(F)cc2)cn1)n1ccnc1", "note": "(stereo not drawn) [Example 12, 2-(1-(1H-imidazol-1-yl)ethyl)-5-(4-fluorophenyl)pyridine]", "pIC50": "5.00 to 6.70"}, {"smiles": "CC(c1cnc(-c2ccc(C#N)cc2)s1)n1ccnc1", "note": "(stereo not drawn) [Example 22, 4-(5-(1-(1H-imidazol-1-yl)ethyl)thiazol-2-yl)benzonitrile]", "pIC50": "5.00 to 6.70"}]}]}
